This note sets out measurements from publication PMC6934184, “Selective DNA-PKcs inhibition extends the therapeutic index of localized radiotherapy and chemotherapy” (The Journal of Clinical Investigation, 2019).

For the assay, the target named is T1, ADRBK2 (GRK3) (Homo sapiens, UniProt P35626).
T1 construct: purchased Thermo Fisher Scientific (Life Technologies) SelectScreen
The experiment in a line: SelectScreen Z'LYTE. In kind it is biochemical. The gist of the method: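 NU5455 was profiled across the SelectScreen Broad panel of kinase activity and binding assays. Z'LYTE reactions such as CSF1R ran at apparent Km ATP, while the Adapta CAMK1 assay used ATP listed as 10. Values are given as percent.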

T1 sequence (P35626 whole entry): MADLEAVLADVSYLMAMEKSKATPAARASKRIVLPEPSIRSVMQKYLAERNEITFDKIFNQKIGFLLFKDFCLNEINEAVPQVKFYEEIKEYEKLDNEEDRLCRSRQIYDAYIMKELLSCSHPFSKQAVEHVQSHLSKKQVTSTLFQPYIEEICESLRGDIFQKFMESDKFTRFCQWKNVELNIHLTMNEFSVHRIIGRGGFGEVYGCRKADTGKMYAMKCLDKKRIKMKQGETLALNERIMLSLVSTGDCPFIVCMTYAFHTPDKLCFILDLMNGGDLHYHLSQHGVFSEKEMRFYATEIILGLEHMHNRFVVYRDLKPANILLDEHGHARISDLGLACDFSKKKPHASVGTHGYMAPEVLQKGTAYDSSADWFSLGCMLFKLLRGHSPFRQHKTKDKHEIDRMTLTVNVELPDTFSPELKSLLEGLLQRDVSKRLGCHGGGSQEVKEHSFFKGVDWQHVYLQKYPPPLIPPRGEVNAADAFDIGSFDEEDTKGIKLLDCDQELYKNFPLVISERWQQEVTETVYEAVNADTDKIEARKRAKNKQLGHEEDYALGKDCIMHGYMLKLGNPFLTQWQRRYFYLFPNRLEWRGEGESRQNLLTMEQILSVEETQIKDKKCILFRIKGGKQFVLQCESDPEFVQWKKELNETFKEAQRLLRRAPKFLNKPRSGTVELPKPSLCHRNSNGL

Broadly, the inhibition is the percentage by which the read-out fell short of the control. As to `CN(C(=O)CN1CCOCC1)c1ccc2sc3c(-c4cccc5c(=O)cc(N6CC7CCC(C6)O7)oc45)cccc3c2c1` [NU5455], 1 µM produced 2.8% inhibition.
